Laboratory results as given in PubChem BioAssay AID2060505 (Molecular Pharmacology Branch, DTP, NCI, 2025).

Tested on: 633275-114-R-J1-PDC complex spheroids, viability
Assay: Anticancer human tumor 633275-114-R-J1-PDC patient-derived endometrial adenocarcinoma cell line growth inhibition [GQUAD]
Conditions: for IC50: curve of first compound; for viability, T/C: stronger effect = lower value
Procedure, shortened: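 Tumor cells were grown as complex spheroids with HUVEC endothelial cells and mesenchymal stem cells as stroma. G-quadruplex stabilizers were combined with targeted agents over half-log dilutions from near the clinical Cmax, or from 10 microM.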

[1] = second compound 0.0316 µM, first compound 0.0316 µM
[2] = second compound 0.0316 µM, first compound 0.1 µM
[3] = second compound 0.0316 µM, first compound 0.316 µM
[4] = second compound 0.0316 µM, first compound 1 µM
[5] = second compound 0.0316 µM, first compound 3.16 µM
[6] = second compound 0.0316 µM, first compound 10 µM
[7] = second compound 0.1 µM, first compound 0.0316 µM
[8] = second compound 0.1 µM, first compound 0.1 µM
[9] = second compound 0.1 µM, first compound 0.316 µM
[10] = second compound 0.1 µM, first compound 1 µM
[11] = second compound 0.1 µM, first compound 3.16 µM
[12] = second compound 0.1 µM, first compound 10 µM
[13] = second compound 0.316 µM, first compound 0.0316 µM
[14] = second compound 0.316 µM, first compound 0.1 µM
[15] = second compound 0.316 µM, first compound 0.316 µM
[16] = second compound 0.316 µM, first compound 1 µM
[17] = second compound 0.316 µM, first compound 3.16 µM
[18] = second compound 0.316 µM, first compound 10 µM
[19] = second compound 1 µM, first compound 0.0316 µM
[20] = second compound 1 µM, first compound 0.1 µM
[21] = second compound 1 µM, first compound 0.316 µM
[22] = second compound 1 µM, first compound 1 µM
[23] = second compound 1 µM, first compound 3.16 µM
[24] = second compound 1 µM, first compound 10 µM
[25] = second compound 3.16 µM, first compound 0.0316 µM
[26] = second compound 3.16 µM, first compound 0.1 µM
[27] = second compound 3.16 µM, first compound 0.316 µM
[28] = second compound 3.16 µM, first compound 1 µM
[29] = second compound 3.16 µM, first compound 3.16 µM
[30] = second compound 3.16 µM, first compound 10 µM
[31] = second compound 10 µM, first compound 0.0316 µM
[32] = second compound 10 µM, first compound 0.1 µM
[33] = second compound 10 µM, first compound 0.316 µM
[34] = second compound 10 µM, first compound 1 µM
[35] = second compound 10 µM, first compound 3.16 µM
[36] = second compound 10 µM, first compound 10 µM
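Further: spheroids exposed to the agents for seven days.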
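Wherever viability, T/C is given: percent of DMSO vehicle control viability which is 100%.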

O=c1[nH]cc(F)c(=O)[nH]1 + Cc1[nH]c2ccc(F)cc2c1-c1nc2c3cccnc3c3ncccc3c2[nH]1
IC50 (second compound 0.0316 µM): > 10 µM | IC50 (second compound 0.1 µM): > 10 µM | IC50 (second compound 0.316 µM): > 10 µM | IC50 (second compound 1 µM): > 10 µM | IC50 (second compound 3.16 µM): > 10 µM | IC50 (second compound 10 µM): > 10 µM | viability, T/C [1]: 97.7% | viability, T/C [2]: 107% | viability, T/C [3]: 107% | viability, T/C [4]: 95.4% | viability, T/C [5]: 86% | viability, T/C [6]: 71.8% | viability, T/C [7]: 108% | viability, T/C [8]: 89.7% | viability, T/C [9]: 96.4% | viability, T/C [10]: 98.8% | viability, T/C [11]: 91.4% | viability, T/C [12]: 70.6% | viability, T/C [13]: 95.2% | viability, T/C [14]: 95.6% | viability, T/C [15]: 94% | viability, T/C [16]: 90.6% | viability, T/C [17]: 93.4% | viability, T/C [18]: 71.4% | viability, T/C [19]: 91.3% | viability, T/C [20]: 101% | viability, T/C [21]: 90.6% | viability, T/C [22]: 88.4% | viability, T/C [23]: 84.5% | viability, T/C [24]: 73.3% | viability, T/C [25]: 77.1% | viability, T/C [26]: 71.7% | viability, T/C [27]: 75.5% | viability, T/C [28]: 73.2% | viability, T/C [29]: 71.2% | viability, T/C [30]: 56.9% | viability, T/C [31]: 70.5% | viability, T/C [32]: 73% | viability, T/C [33]: 71.9% | viability, T/C [34]: 73% | viability, T/C [35]: 71.8% | viability, T/C [36]: 55.9%

CC(C)n1c(=O)n(C)c2cnc3cc(F)c(-c4ccc(OCCCN5CCCCC5)nc4)cc3c21 + CN(C)c1ccc(Nc2c3ccc(NC(=O)CCN4CCCC4)cc3nc3cc(NC(=O)CCN4CCCC4)ccc23)cc1
IC50 (second compound 0.0316 µM): > 10 µM | IC50 (second compound 0.1 µM): > 10 µM | IC50 (second compound 0.316 µM): > 10 µM | IC50 (second compound 1 µM): > 10 µM | IC50 (second compound 3.16 µM): 2.55 µM | IC50 (second compound 10 µM): < 0.0316 µM | viability, T/C [1]: 115% | viability, T/C [2]: 109% | viability, T/C [3]: 102% | viability, T/C [4]: 109% | viability, T/C [5]: 102% | viability, T/C [6]: 67.9% | viability, T/C [7]: 102% | viability, T/C [8]: 115% | viability, T/C [9]: 98.2% | viability, T/C [10]: 97.4% | viability, T/C [11]: 97.4% | viability, T/C [12]: 65.1% | viability, T/C [13]: 102% | viability, T/C [14]: 104% | viability, T/C [15]: 98.7% | viability, T/C [16]: 101% | viability, T/C [17]: 86.1% | viability, T/C [18]: 70.7% | viability, T/C [19]: 99.8% | viability, T/C [20]: 98.3% | viability, T/C [21]: 113% | viability, T/C [22]: 78.4% | viability, T/C [23]: 85.1% | viability, T/C [24]: 63.5% | viability, T/C [25]: 84.4% | viability, T/C [26]: 81.2% | viability, T/C [27]: 60.4% | viability, T/C [28]: 64.5% | viability, T/C [29]: 50.3% | viability, T/C [30]: 32.3% | viability, T/C [31]: 29% | viability, T/C [32]: 28.8% | viability, T/C [33]: 22.1% | viability, T/C [34]: 21.5% | viability, T/C [35]: 17.9% | viability, T/C [36]: 9.88%

CC1COCCN1c1cc(C2(S(C)(=N)=O)CC2)nc(-c2ccnc3[nH]ccc23)n1 (stereo not given) + Cc1[nH]c2ccc(F)cc2c1-c1nc2c3cccnc3c3ncccc3c2[nH]1
IC50 (second compound 0.0316 µM): 3.46 µM | IC50 (second compound 0.1 µM): 3.07 µM | IC50 (second compound 0.316 µM): 3.55 µM | IC50 (second compound 1 µM): 3.24 µM | IC50 (second compound 3.16 µM): 1.29 µM | IC50 (second compound 10 µM): 1.38 µM | viability, T/C [1]: 105% | viability, T/C [2]: 96.1% | viability, T/C [3]: 98.3% | viability, T/C [4]: 73.9% | viability, T/C [5]: 52.6% | viability, T/C [6]: 33.8% | viability, T/C [7]: 97.3% | viability, T/C [8]: 99.9% | viability, T/C [9]: 96.4% | viability, T/C [10]: 78.5% | viability, T/C [11]: 49.8% | viability, T/C [12]: 33.2% | viability, T/C [13]: 102% | viability, T/C [14]: 97.5% | viability, T/C [15]: 90.5% | viability, T/C [16]: 81.6% | viability, T/C [17]: 50.4% | viability, T/C [18]: 33.5% | viability, T/C [19]: 90.9% | viability, T/C [20]: 92.8% | viability, T/C [21]: 87.6% | viability, T/C [22]: 73% | viability, T/C [23]: 50.7% | viability, T/C [24]: 34.3% | viability, T/C [25]: 73.7% | viability, T/C [26]: 76.4% | viability, T/C [27]: 69.9% | viability, T/C [28]: 52.6% | viability, T/C [29]: 38.4% | viability, T/C [30]: 30.3% | viability, T/C [31]: 71.7% | viability, T/C [32]: 71.5% | viability, T/C [33]: 67% | viability, T/C [34]: 54.7% | viability, T/C [35]: 37.6% | viability, T/C [36]: 27.2%

COc1ccc([C@@H](O)c2cc(-c3ncnc4cc(N5CCOCC5)ccc34)c(F)cc2Cl)nn1 + CN(C)c1ccc(Nc2c3ccc(NC(=O)CCN4CCCC4)cc3nc3cc(NC(=O)CCN4CCCC4)ccc23)cc1
IC50 (second compound 0.0316 µM): 4.67 µM | IC50 (second compound 0.1 µM): 3.73 µM | IC50 (second compound 0.316 µM): 2.64 µM | IC50 (second compound 1 µM): 1.71 µM | IC50 (second compound 3.16 µM): 0.938 µM | IC50 (second compound 10 µM): < 0.0316 µM | viability, T/C [1]: 108% | viability, T/C [2]: 97.2% | viability, T/C [3]: 83.7% | viability, T/C [4]: 74.7% | viability, T/C [5]: 55.7% | viability, T/C [6]: 37.6% | viability, T/C [7]: 96% | viability, T/C [8]: 102% | viability, T/C [9]: 88.9% | viability, T/C [10]: 71.1% | viability, T/C [11]: 55.3% | viability, T/C [12]: 32.3% | viability, T/C [13]: 92.5% | viability, T/C [14]: 91.6% | viability, T/C [15]: 93.5% | viability, T/C [16]: 65.3% | viability, T/C [17]: 49.8% | viability, T/C [18]: 30.9% | viability, T/C [19]: 91.8% | viability, T/C [20]: 88% | viability, T/C [21]: 81.3% | viability, T/C [22]: 59.6% | viability, T/C [23]: 38.7% | viability, T/C [24]: 26.8% | viability, T/C [25]: 84.2% | viability, T/C [26]: 81.2% | viability, T/C [27]: 73.7% | viability, T/C [28]: 46.9% | viability, T/C [29]: 30.6% | viability, T/C [30]: 20.4% | viability, T/C [31]: 33.8% | viability, T/C [32]: 34.8% | viability, T/C [33]: 21.5% | viability, T/C [34]: 13.8% | viability, T/C [35]: 11.8% | viability, T/C [36]: 9.3%

CCCS(=O)(=O)Nc1ccc(F)c(C(=O)c2c[nH]c3ncc(-c4ccc(Cl)cc4)cc23)c1F + CN(C)c1ccc(Nc2c3ccc(NC(=O)CCN4CCCC4)cc3nc3cc(NC(=O)CCN4CCCC4)ccc23)cc1
IC50 (second compound 0.0316 µM): 8.89 µM | IC50 (second compound 0.1 µM): 9.28 µM | IC50 (second compound 0.316 µM): 9.53 µM | IC50 (second compound 1 µM): 8.32 µM | IC50 (second compound 3.16 µM): 5.04 µM | IC50 (second compound 10 µM): < 0.0316 µM | viability, T/C [1]: 93.3% | viability, T/C [2]: 97.6% | viability, T/C [3]: 98.5% | viability, T/C [4]: 100% | viability, T/C [5]: 91% | viability, T/C [6]: 45.2% | viability, T/C [7]: 90.6% | viability, T/C [8]: 109% | viability, T/C [9]: 103% | viability, T/C [10]: 103% | viability, T/C [11]: 91.4% | viability, T/C [12]: 46.8% | viability, T/C [13]: 100% | viability, T/C [14]: 108% | viability, T/C [15]: 103% | viability, T/C [16]: 111% | viability, T/C [17]: 85.8% | viability, T/C [18]: 48.4% | viability, T/C [19]: 97.1% | viability, T/C [20]: 106% | viability, T/C [21]: 103% | viability, T/C [22]: 99.1% | viability, T/C [23]: 83.9% | viability, T/C [24]: 43.4% | viability, T/C [25]: 92.5% | viability, T/C [26]: 89% | viability, T/C [27]: 94.8% | viability, T/C [28]: 94.3% | viability, T/C [29]: 69% | viability, T/C [30]: 22.3% | viability, T/C [31]: 33.7% | viability, T/C [32]: 31.8% | viability, T/C [33]: 31.6% | viability, T/C [34]: 33.6% | viability, T/C [35]: 25.1% | viability, T/C [36]: 7.58%
